Source: patent publication US7473679B2, “Treatments employing neuronal exocytosis-inhibiting peptides” (Lipotec, S.A., priority 1999, dated 2009)

Tested on: chromaffin cells permeabilized with digitonin
Experiment: Inhibition of the release of catecholamines induced by calcium in permeabilized chromaffin cells
Format: cell-based, bovine
Conditions: peptide at 1 mM, stimulated with calcium
Protocol: The neuronal-exocytosis (neurosecretion) inhibiting capabilities of the peptides of the invention became evident through a test that evaluates the strength of said peptides in inhibiting the release of catecholamines induced by calcium in chromaffin cells permeabilized with a detergent [see Example 1.2.1]. Briefly, the chromaffin cell cultures are incubated with epinephrine and norepinephrine containing tritium, are permeabilized with digitonin, and stimulated with calcium, and the amount of radioactivity released by the cells to the extracellular medium, which is a reflection of the exocytosis of said tritium-containing catecholamines, is measured.
This test was performed to verify the neuronal exocytosis-inhibiting capabilities of the peptides synthesized in Example 1.1. In this test, the strength of said peptides is evaluated in inhibiting the release of catecholamines (norepinephrine and epinephrine) induced by calcium in chromaffin cells (obtained from suprarenal bovine glands) permeabilized with the detergent digitonin, in accordance with the method described by Gutiérrez el al. (1995 and 1997).
Briefly, the chromaffin cell cultures are incubated with [^3H]-epinephrine and [^3H]-norepinephrine, are permeabilized with 20 μM digitonin, and stimulated with calcium (10 μM), in the presence of the peptides to be tested (separate or mixed), and the amount of radioactivity released by the cells to the extracellular medium, which is a reflection of the exocytosis of [^3H]-epinephrine and [^3H]-norepinephrine, is measured.

Row | Substance | inhibition of the release of catecholamines (epinephrine and norepinephrine)
1 | SEQ. ID. No. 2: hexapeptide from the amino end of protein SNAP-25 (EEMQRR) | approximately 20%
2 | SEQ. ID. No. 3: peptide with 13 amino acids from the amino end of protein SNAP-25 (ELEEMQRRADQLA) | approximately 35%
3 | SEQ. ID. No. 5: peptide from the carboxyl end of SNAP-25 [SEQ. ID. No. 4], (COOH) peptide (RIMEKADSNKTRIDEANQ) | approximately 40%
4 | SEQ. ID. No. 6: peptide from the carboxyl end of SNAP-25 [SEQ. ID. No. 4], (COOH) peptide (ADSNKTRIDEANQRATKML) | approximately 40%
